Laboratory results: patent US20220274947A1, “NOVEL HETEROARYL-TRIAZOLE COMPOUNDS AS PESTICIDES” (Bayer Aktiengesellschaft, priority 2019, published 2022)

Experiments:
Type in all cases: in vivo
Ctenocephalides felis = Ctenocephalides felis in-vitro contact test, adult cat flea (CTECFE Cont); conditions: application rate 5 μg/cm^2 (=500 g/ha), adult cat fleas, after 48 hours, read-out: activity (efficacy: 100% means all fleas are dead or moribund)
Method in brief: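 Acetone solutions coated on glass tube inner walls (900 ppm giving 5 μg/cm^2), then 5-10 adult fleas added and held 48 h at room temperature. Fleas unable to escape a 45-50° C. heating plate within 5 min scored dead or moribund; efficacy = % dead/moribund.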

[1] = test system: Culex quinquefasciatus strain P00; experiment: Culex quinquefasciatus test (CULXFA surface treatment & contact assay); conditions: exposure 30 minutes, 24 hours after contact, read-out: efficacy (mortality); for mortality at 20 mg/m2: surface concentration 20 mg/m^2, glazed tile; for mortality at 4 mg/m2: surface concentration 4 mg/m^2, glazed tile
Method in brief: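 Test compound in acetone (2 mg/ml) with 2000 ppm RME pipetted onto glazed tile; after acetone evaporation, adult strain P00 mosquitoes exposed to dried surface for 30 min. Mortality (%) scored 24 h after contact; 100% = all dead, 0% = none dead.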

[2] = test system: Aedes aegypti strain MONHEIM; experiment: Aedes aegypti test (AEDSAE surface treatment & contact assay); conditions: exposure 30 minutes, 24 hours after contact, read-out: efficacy (mortality); for mortality at 4 mg/m2: surface concentration 4 mg/m^2, glazed tile; for mortality at 20 mg/m2: surface concentration 20 mg/m^2, glazed tile
Method in brief: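 Compound dissolved in acetone (2 mg/ml) with 2000 ppm rapeseed oil methyl ester, pipetted onto glazed tile and dried. Adult mosquitoes exposed on the surface for 30 min; percent mortality scored 24 h after contact.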

Rhipicephalus microplus [3] = experiment: Rhipicephalus (Boophilus) microplus in-vitro contact test, larval cattle tick, strain Parkhurst (BOOPMI Cont); conditions: application rate 5 μg/cm^2 (=500 g/ha), tick larvae, after 48 hours, read-out: activity (efficacy: 100% means all larvae are dead or moribund)
Method in brief: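 Acetone solutions dried onto glass tube walls (900 ppm giving 5 μg/cm^2); 20-50 pyrethroid-resistant Parkhurst larvae added per tube and held 48 h at 27° C., 85% relative humidity. Efficacy scored by negative geotaxis as % dead or moribund larvae.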

Rhipicephalus microplus [4] = experiment: Rhipicephalus (Boophilus) microplus injection test (BOOPMI Inj); conditions: 168 h, injection into adult engorged female ticks, egg deposition after 7 days, read-out: activity (efficacy: 100% means all eggs are infertile); for pest or weed control at 0.004 mg: application rate 4 μg/tick; for pest or weed control at 0.02 mg: application rate 20 μg/tick
Method in brief: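 Five engorged adult female R. microplus ticks injected into the abdomen with 1 μL of compound diluted in DMSO, then kept in a climate chamber. Fertile egg deposition checked after 7 days; eggs without visible fertility held until hatching at about 42 days. Efficacy: 100% = all eggs infertile, 0% = all fertile.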

Spodoptera frugiperda = Spodoptera frugiperda spray test; conditions: in Zea mays, 168 h, read-out: activity (mortality)
Method in brief: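 Maize leaf sections were sprayed with compound formulated in acetone/DMF and diluted in water containing 1000 ppm emulsifier. Dried leaves were infested with fall armyworm larvae, and percent mortality was scored after 7 days.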

Diabrotica balteata = Diabrotica balteata spray test; conditions: 168 h, wheat seeds, larvae, after 7 days, read-out: activity (efficacy: 100% means all seedlings have grown up like in the untreated, uninfected control); for pest or weed control at 32 µg/disc, 100 g/ha: application rate 100 g/ha (=32 μg/well); for pest or weed control at 160 µg/disc, 500 g/ha: application rate 500 g/ha (=160 μg/well)
Method in brief: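 Wheat seedlings, germinated 1 day on agar, were sprayed with compound in acetone/DMF diluted in water containing emulsifier, then infested with 10-20 Diabrotica balteata larvae. After 7 days efficacy in % was scored: 100% means seedlings grew like the untreated, uninfected control; 0% means none grew.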

SMILES | pest or weed control at 5 µg/cm2 (Ctenocephalides felis) | mortality at 20 mg/m2 [1] | mortality at 4 mg/m2 [2] | mortality at 20 mg/m2 [2] | pest or weed control at 5 µg/cm2 (Rhipicephalus microplus [3]) | pest or weed control at 0.004 mg (Rhipicephalus microplus [4]) | pest or weed control at 0.02 mg (Rhipicephalus microplus [4]) | mortality at 100 g/ha (Spodoptera frugiperda) | pest or weed control at 32 µg/disc, 100 g/ha (Diabrotica balteata) | mortality at 500 g/ha (Spodoptera frugiperda) | pest or weed control at 160 µg/disc, 500 g/ha (Diabrotica balteata) | mortality at 4 mg/m2 [1]
Cc1nc([C@H](C)NC(=O)c2cc(Cl)nc(C(F)(F)F)c2)n(-c2ccc(C#N)cn2)n1 [II-62] | 100% | 80 to 100% | 80 to 100% | 80 to 100% | 100% | 100% | 100% | 100% | 100% | – | – | –
Cc1nc([C@H](C)NC(=O)c2cc(Cl)cc(Cl)c2)n(-c2cc(C#N)ccn2)n1 [II-17] | 100% | 80 to 100% | 80 to 100% | 80 to 100% | 90% | 100% | 100% | – | 100% | 100% | 100% | –
C[C@H](NC(=O)c1cc(Cl)cc(C(F)F)c1)c1ncnn1-c1ccc(C#N)cn1 [II-12] | 100% | 80 to 100% | 80 to 100% | – | 100% | 100% | 100% | 100% | 100% | 100% | 100% | 80 to 100%
C[C@H](NC(=O)c1ccnc(C(F)(F)F)n1)c1ncnn1-c1ccc(C#N)cn1 [II-8] | 90% | 80 to 100% | 80 to 100% | 80 to 100% | 100% | 100% | 100% | – | 100% | 100% | 100% | 80 to 100%
Cc1nc([C@H](C)NC(=O)c2cc(C(F)(F)F)cc(C(F)(F)F)c2)n(-c2cc(C#N)ccn2)n1 [II-19] | 100% | 80 to 100% | 80 to 100% | 80 to 100% | 100% | 100% | 100% | 100% | 100% | 100% | 100% | –
C[C@H](NC(=O)c1cc(C(F)(F)F)cc(C(F)(F)F)c1)c1ncnn1-c1ncc(Cl)s1 [II-40] | 100% | 80 to 100% | 80 to 100% | 80 to 100% | 100% | 100% | 100% | 100% | 100% | 100% | 100% | 80 to 100%
Cc1nc([C@H](C)NC(=O)c2cc(Br)cc(Br)c2)n(-c2ccc(C#N)cn2)n1 [II-52] | 100% | – | 80 to 100% | 80 to 100% | 100% | 100% | 100% | 100% | 100% | – | – | 80 to 100%
CCN(C)C(=O)c1ccc(-n2ncnc2[C@H](C)NC(=O)c2cc(Cl)cc(C(F)(F)F)c2)nc1 [II-27] | 100% | 80 to 100% | 80 to 100% | 80 to 100% | 100% | 100% | 100% | 83% | – | 83% | 100% | –
CCN(C(=O)c1ccc(-n2ncnc2[C@H](C)NC(=O)c2cc(Cl)cc(C(F)(F)F)c2)nc1)C1CC1 [II-31] | 100% | 80 to 100% | – | 80 to 100% | 100% | 100% | 100% | 100% | 100% | 100% | 100% | –
C[C@H](NC(=O)c1cc(C(F)(F)F)cc(C(F)(F)F)c1)c1ncnn1-c1ccc(C(=O)N(C)C2CC2)cn1 [II-38, 6-(5-{(1S)-1-[3,5-bis(trifluoromethyl)benzamido]ethyl}-1H-1,2,4-triazol-1-yl)-N-cyclopropyl-N-methylnicotinamide] | 100% | 80 to 100% | 80 to 100% | 80 to 100% | 100% | 100% | 100% | 100% | 100% | 100% | 100% | –
C[C@H](NC(=O)c1cc(Cl)cc(SC(F)F)c1)c1ncnn1-c1ccc(C#N)cn1 [II-11] | 100% | 80 to 100% | 80 to 100% | 80 to 100% | 100% | 100% | 100% | 100% | 100% | 100% | 100% | 80 to 100%
CC(=O)Nc1ccnc(-n2ncnc2[C@H](C)NC(=O)c2cc(Cl)cc(OC(F)(F)F)c2)c1 [II-22] | 100% | 80 to 100% | 80 to 100% | 80 to 100% | 80% | 100% | 100% | – | – | 83% | 100% | 80 to 100%
